# Tests used:
# A375 cells = experiment: Annexin V/PI flow cytometry; assay type: cell-based, human; settings: A375, 48 h, 2 × EC50
# Procedure: Due to its good cytotoxic properties, compound 11 was subjected to flow cytometric measurements (Annexin V/PI assay).
# Thereby, the BL1-A signal corresponds to the FITC signal for annexin V (x-axis) while PI is detected at BL3-A (y-axis). Thus, cells in R1 correspond to necrotic cells, those in R2 to late apoptosis, cells in R3 are viable cells, and cells in R4 have died from apoptosis.
# Approximately 600,000 cells (A375) were seeded in cell culture flasks and were allowed to grow for 1 day. After removing of the medium, the substance loaded medium was added, and the flasks were incubated for 48 h. All cells were harvested, centrifuged (1200 rpm, 5 min), and washed twice (PBS (w/w)). Approximately 100,000 cells were washed with annexin V bounding buffer (BD Biosciences®) and treated with a propidium iodide solution (3 μL, 1 mg/mL) and annexin V (5 μL, BD Biosciences®) for 15 min at room temperature in the dark. After adding annexin V bounding buffer (400 μL) the suspension was submitted to a FACS measurement.
# HL-60(TB) (Leukemia) = experiment: NCI-60 screen (SRB, 48 h); assay type: cell-based; settings: Homo sapiens
# LOX IMVI (Melanoma) = experiment: NCI-60 screen (SRB, 48 h); assay type: cell-based; settings: Homo sapiens
# OVCAR-4 (Ovarian cancer) = experiment: NCI-60 screen (SRB, 48 h); assay type: cell-based; settings: Homo sapiens
# OVCAR-3 (Ovarian cancer) = settings: OVCAR-3, 1 dose 10 µM
# [1] = tested on: MDA-MB-468 (Breast cancer); experiment: cells; settings: Homo sapiens
# Colon Cancer subpanel = experiment: NCI-60 screen, subpanel; settings: Homo sapiens
# Ovarian Cancer subpanel = experiment: NCI-60 screen, subpanel; settings: Homo sapiens
# Breast cancer subpanel = experiment: NCI-60 screen, subpanel; settings: Homo sapiens
# MOLT-4 (Leukemia) = experiment: NCI-60 screen (SRB, 48 h); settings: Homo sapiens
# RPMI-8226 (Leukemia) = experiment: NCI-60 screen (SRB, 48 h); settings: Homo sapiens
# EKVX (NSC lung cancer) = experiment: NCI-60 screen (SRB, 48 h); settings: Homo sapiens
# HOP-92 (NSC lung cancer) = experiment: NCI-60 screen (SRB, 48 h); settings: Homo sapiens
# [2] = tested on: NCI-H460 (NSC lung cancer); experiment: NCI-60 screen (SRB, 48 h); settings: Homo sapiens
# SW-620 (Colon cancer) = experiment: NCI-60 screen (SRB, 48 h); settings: Homo sapiens
# SNB-75 (CNS cancer) = experiment: NCI-60 screen (SRB, 48 h)
# M14 (Melanoma) = experiment: NCI-60 screen (SRB, 48 h); settings: Homo sapiens
# SK-MEL-28 (Melanoma) = experiment: NCI-60 screen (SRB, 48 h); settings: Homo sapiens
# [3] = tested on: NCI/ADR-RES (Ovarian cancer); experiment: NCI-60 screen (SRB, 48 h); settings: Homo sapiens
# SK-OV-3 (Ovarian cancer) = experiment: NCI-60 screen (SRB, 48 h); settings: Homo sapiens
# 786-0 (Renal cancer) = experiment: NCI-60 screen (SRB, 48 h); settings: Homo sapiens
# ACHN (Renal cancer) = experiment: NCI-60 screen (SRB, 48 h)
# RXF 393 (Renal cancer) = experiment: NCI-60 screen (SRB, 48 h); settings: Homo sapiens
# T-47D (Breast cancer) = experiment: NCI-60 screen (SRB, 48 h); settings: Homo sapiens, T47D
structure (smiles),measurement,setting,value
C=C(C)[C@@H]1CC[C@]2(C(=O)N[C@H](CO)Cc3ccccc3)CC[C@]3(C)[C@H](CC[C@@H]4[C@@]5(C)CCCNC(C)(C)[C@@H]5CC[C@]43C)[C@@H]12 [Compound 11],cells died by apoptosis (R4),A375 cells,44.3%
same,necrotic cells (R1),A375 cells,1.1%
same,GI50,HL-60(TB) (Leukemia),200 nM
same,IC (TGI),HL-60(TB) (Leukemia); 48 h,0.46 µM
same,IC (TGI),LOX IMVI (Melanoma); 48 h,2.42 µM
same,GI50,LOX IMVI (Melanoma); read-out: GI50,1070 nM
same,IC (TGI),"OVCAR-4 (Ovarian cancer); OVCAR-4, 48 h",0.94 µM
same,GI50,"OVCAR-4 (Ovarian cancer); OVCAR-4, read-out: GI50",240 nM
same,Growth % of the Most Sensitive Cell Lines,OVCAR-3 (Ovarian cancer),−95.88%
same,GI50,[1]; MDA-MB-468,1520 nM
same,IC (TGI),"[1]; MDA-MB-468, 48 h, read-out: TGI",3.03 µM
same,CC50,"[1]; MDA-MB-468, read-out: LC50",6.01 µM
same,IC (TGI),"Colon Cancer subpanel; 48 h, read-out: TGI MG_MID",2.18 µM
same,GI50,Colon Cancer subpanel; read-out: GI50 MG_MID,960 nM
same,CC50,Colon Cancer subpanel; read-out: LC50 MG_MID,3.76 µM
same,IC (TGI),"Ovarian Cancer subpanel; 48 h, read-out: TGI MG_MID",2.62 µM
same,GI50,Ovarian Cancer subpanel; read-out: GI50 MG_MID,1200 nM
same,IC (TGI),"Breast cancer subpanel; 48 h, read-out: TGI MG_MID",3.16 µM
same,GI50,Breast cancer subpanel; read-out: GI50 MG_MID,1410 nM
same,CC50,Breast cancer subpanel; read-out: LC50 MG_MID,6.01 µM
same,GI50,MOLT-4 (Leukemia); MOLT-4,670 nM
same,IC (TGI),"MOLT-4 (Leukemia); MOLT-4, 48 h, read-out: TGI",2.3 µM
same,GI50,RPMI-8226 (Leukemia); RPMI-8226,240 nM
same,IC (TGI),"RPMI-8226 (Leukemia); RPMI-8226, 48 h, read-out: TGI",0.63 µM
same,GI50,EKVX (NSC lung cancer),1730 nM
same,IC (TGI),"EKVX (NSC lung cancer); 48 h, read-out: TGI",3.49 µM
same,GI50,HOP-92 (NSC lung cancer); HOP-92,1420 nM
same,IC (TGI),"HOP-92 (NSC lung cancer); HOP-92, 48 h, read-out: TGI",3.01 µM
same,CC50,"HOP-92 (NSC lung cancer); HOP-92, read-out: LC50",6.42 µM
same,GI50,[2]; NCI-H460,1210 nM
same,IC (TGI),"[2]; NCI-H460, 48 h, read-out: TGI",2.77 µM
same,GI50,SW-620 (Colon cancer); SW-620,850 nM
same,IC (TGI),"SW-620 (Colon cancer); SW-620, 48 h, read-out: TGI",2.26 µM
same,GI50,"SNB-75 (CNS cancer); Homo sapiens, SNB-75",1430 nM
same,IC (TGI),"SNB-75 (CNS cancer); Homo sapiens, SNB-75, 48 h, read-out: TGI",2.87 µM
same,CC50,"SNB-75 (CNS cancer); Homo sapiens, SNB-75, read-out: LC50",5.72 µM
same,Growth % of the Most Sensitive Cell Lines,"SNB-75 (CNS cancer); SNB-75, 1 dose 10 µM",−95.12%
same,GI50,M14 (Melanoma); M14,740 nM
same,IC (TGI),"M14 (Melanoma); M14, 48 h, read-out: TGI",2.19 µM
same,GI50,SK-MEL-28 (Melanoma); SK-MEL-28,1550 nM
same,IC (TGI),"SK-MEL-28 (Melanoma); SK-MEL-28, 48 h, read-out: TGI",3.03 µM
same,GI50,[3],1350 nM
same,IC (TGI),"[3]; 48 h, read-out: TGI",3.01 µM
same,GI50,SK-OV-3 (Ovarian cancer); SK-OV-3,1730 nM
same,IC (TGI),"SK-OV-3 (Ovarian cancer); SK-OV-3, 48 h, read-out: TGI",3.23 µM
same,GI50,786-0 (Renal cancer); 786-0,400 nM
same,IC (TGI),"786-0 (Renal cancer); 786-0, 48 h, read-out: TGI",1.6 µM
same,Growth % of the Most Sensitive Cell Lines,ACHN (Renal cancer); 1 dose 10 µM,−95.87%
same,GI50,ACHN (Renal cancer); Homo sapiens,1710 nM
same,IC (TGI),"ACHN (Renal cancer); Homo sapiens, 48 h, read-out: TGI",3.16 µM
same,GI50,RXF 393 (Renal cancer); RXF 393,1670 nM
same,IC (TGI),"RXF 393 (Renal cancer); RXF 393, 48 h, read-out: TGI",3.27 µM
same,GI50,T-47D (Breast cancer),1800 nM
same,IC (TGI),"T-47D (Breast cancer); 48 h, read-out: TGI",4.02 µM

# Source: PMC7914897, “Cytotoxic Potential of a-Azepano- and 3-Amino-3,4-SeCo-Triterpenoids” (International Journal of Molecular Sciences, 2021)
